Measured values from US11345681B1, “Inhibitors of fibroblast growth factor receptor kinases” (Kinnate Biopharma Inc., priority 2020, dated 2022).

biological target: Wild type FGFR2 (Homo sapiens (Human), UniProt P21802); test: FGFR2 kinase assay (fluorescence-based microfluidic mobility shift assay); format: biochemical; conditions: wild type FGFR2 0.06 nM, 100 μM ATP, 80 minutes at room temperature; class symbols
Sequence (P21802 22-821): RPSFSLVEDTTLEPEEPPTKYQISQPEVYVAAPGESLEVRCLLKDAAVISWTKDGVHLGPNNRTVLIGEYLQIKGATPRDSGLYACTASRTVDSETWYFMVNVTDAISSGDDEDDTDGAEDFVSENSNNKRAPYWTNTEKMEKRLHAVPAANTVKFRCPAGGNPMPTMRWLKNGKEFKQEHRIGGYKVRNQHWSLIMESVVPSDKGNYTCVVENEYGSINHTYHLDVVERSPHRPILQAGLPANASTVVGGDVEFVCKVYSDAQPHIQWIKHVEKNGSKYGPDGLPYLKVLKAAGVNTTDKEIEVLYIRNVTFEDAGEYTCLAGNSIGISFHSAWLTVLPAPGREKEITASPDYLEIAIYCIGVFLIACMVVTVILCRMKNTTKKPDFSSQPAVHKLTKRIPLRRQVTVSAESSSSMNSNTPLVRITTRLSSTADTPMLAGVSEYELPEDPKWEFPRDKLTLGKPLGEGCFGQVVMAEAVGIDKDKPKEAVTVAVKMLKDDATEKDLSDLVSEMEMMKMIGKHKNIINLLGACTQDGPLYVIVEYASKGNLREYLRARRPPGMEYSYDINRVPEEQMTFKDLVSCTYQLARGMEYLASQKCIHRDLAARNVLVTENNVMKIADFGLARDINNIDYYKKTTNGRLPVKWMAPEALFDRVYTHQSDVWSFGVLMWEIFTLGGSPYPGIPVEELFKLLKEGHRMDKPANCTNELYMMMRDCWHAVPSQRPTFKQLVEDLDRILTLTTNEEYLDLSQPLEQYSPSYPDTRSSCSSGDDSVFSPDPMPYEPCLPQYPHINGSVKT

Row | IC50 [nM] | Compound
1 | ≤ 100 | C=CC(=O)N1C[C@@H](n2nc(C#Cc3c(F)c(F)c4c(ncn4C4CC4)c3F)c(C(N)=O)c2NC)C[C@@H]1COC [Example 153, 3-[2-(1-cyclopropyl-4,6,7-trifluoro-1,3-benzodiazol-5-yl)ethynyl]-1-[(3S,5R)-5-(methoxymethyl)-1-(prop-2-enoyl)pyrrolidin-3-yl]-5-(methylamino)pyrazole-4-carboxamide]
2 | ≤ 100 | C=CC(=O)N1C[C@@H](n2nc(C#Cc3cc4ncn(CC)c4c(F)c3F)c(C(N)=O)c2NC)C[C@@H]1COC(F)F [Example 154, 1-[(3S,5R)-5-[(Difluoromethoxy)methyl]-1-(prop-2-enoyl)pyrrolidin-3-yl]-3-[2-(1-ethyl-6,7-difluoro-1,3-benzodiazol-5-yl)ethynyl]-5-(methylamino)pyrazole-4-carboxamide]
3 | ≤ 100 | C=CC(=O)N1C[C@@H](n2nc(C#Cc3ccc4c(c3)ncn4C3CC3)c(C(N)=O)c2NC)C[C@@H]1COC(F)F [Example 155, 3-[2-(1-Cyclopropyl-1,3-benzodiazol-5-yl)ethynyl]-1-[(3S,5R)-5-[(difluoromethoxy)methyl]-1-(prop-2-enoyl)pyrrolidin-3-yl]-5-(methylamino)pyrazole-4-carboxamide]
4 | ≤ 100 | C=CC(=O)N1C[C@@H](n2nc(C#Cc3c(F)cc4c(ncn4C4CC4)c3F)c(C(N)=O)c2NC)C[C@@H]1COC(F)F [Example 156, 1-((3S,5R)-1-Acryloyl-5-((difluoromethoxy)methyl)pyrrolidin-3-yl)-3-((1-cyclopropyl-4,6-difluoro-1H-benzo[d]imidazol-5-yl)ethynyl)-5-(methylamino)-1H-pyrazole-4-carboxamide]
5 | ≤ 100 | C=CC(=O)N1C[C@@H](n2nc(C#Cc3c(F)c(F)c4c(ncn4CC)c3F)c(C(N)=O)c2NC)C[C@@H]1COC [Example 157, 3-[2-(1-Ethyl-4,6,7-trifluoro-1,3-benzodiazol-5-yl)ethynyl]-1-[(3S,5R)-5-(methoxymethyl)-1-(prop-2-enoyl)pyrrolidin-3-yl]-5-(methylamino)pyrazole-4-carboxamide]
6 | ≤ 100 | C=CC(=O)N1C[C@@H](n2nc(C#Cc3cc4ncn(C5CC5)c4cc3F)c(C(N)=O)c2NC)C[C@@H]1COC(F)F [Example 161, 1-((3S,5R)-1-acryloyl-5-((difluoromethoxy)methyl)pyrrolidin-3-yl)-3-((1-cyclopropyl-6-fluoro-1H-benzo[d]imidazol-5-yl)ethynyl)-5-(methylamino)-1H-pyrazole-4-carboxamide]
7 | ≤ 100 | C=CC(=O)N1CC[C@H](n2nc(C#Cc3cc4ncn(C5CC5)c4cc3F)c(C(N)=O)c2N)C1 [Example 168, 5-Amino-3-[2-(1-cyclopropyl-6-fluoro-1,3-benzodiazol-5-yl)ethynyl]-1-[(3S)-1-(prop-2-enoyl)pyrrolidin-3-yl]pyrazole-4-carboxamide]
8 | ≤ 100 | C=CC(=O)N1C[C@@H](n2nc(C#Cc3cc4ncn(C5CC5)c4cc3F)c(C(N)=O)c2NC)C[C@@H]1C(F)F [Example 170, 3-[2-(1-Cyclopropyl-6-fluoro-1,3-benzodiazol-5-yl)ethynyl]-1-[(3S,5R)-5-(difluoromethyl)-1-(prop-2-enoyl)pyrrolidin-3-yl]-5-(methylamino)pyrazole-4-carboxamide]
9 | ≤ 100 | C=CC(=O)N1CC[C@H](n2nc(C#Cc3cc4ncn(C5CC5)c4c(F)c3F)c(C(N)=O)c2NC)C1 [Example 171]
10 | ≤ 100 | C=C(F)C(=O)N1CC(n2nc(C#Cc3cc4ncn(C5CC5)c4cc3F)c(C(N)=O)c2NC)C1 [Example 172, 3-((1-Cyclopropyl-6-fluoro-1H-benzo[d]imidazol-5-yl)ethynyl)-1-(1-(2-fluoroacryloyl)azetidin-3-yl)-5-(methylamino)-1H-pyrazole-4-carboxamide]
11 | ≤ 100 | C=C(F)C(=O)N1CC(n2nc(C#Cc3c(F)cc4c(ncn4C4CC4)c3F)c(C(N)=O)c2NC)C1 [Example 173, 3-((1-Cyclopropyl-4,6-difluoro-1H-benzo[d]imidazol-5-yl)ethynyl)-1-(1-(2-fluoroacryloyl)azetidin-3-yl)-5-(methylamino)-1H-pyrazole-4-carboxamide]
12 | ≤ 100 | C=CC(=O)N1CC(n2nc(C#Cc3cc4ncn(C5CC5)c4cc3F)c(C(N)=O)c2NC)C1 [Example 175, 3-[2-(1-cyclopropyl-6-fluoro-1,3-benzodiazol-5-yl)ethynyl]-5-(methylamino)-1-[1-(prop-2-enoyl)azetidin-3-yl]pyrazole-4-carboxamide]
13 | ≤ 100 | C=CC(=O)N1C[C@@H](n2nc(C#Cc3cc4ncn(C5CC5)c4cc3F)c(C(N)=O)c2NC)C[C@@H]1CF [Example 176, 1-((3S,5R)-1-acryloyl-5-(fluoromethyl)pyrrolidin-3-yl)-3-((1-cyclopropyl-6-fluoro-1H-benzo[d]imidazol-5-yl)ethynyl)-5-(methylamino)-1H-pyrazole-4-carboxamide]
14 | ≤ 100 | C=CC(=O)N1C[C@@H](n2nc(C#Cc3c(F)cc4[nH]cnc4c3F)c(C(N)=O)c2NC)C[C@@H]1COC [Example 177, 1-((3S,5R)-1-acryloyl-5-(methoxymethyl)pyrrolidin-3-yl)-3-((4,6-difluoro-1H-benzo[d]imidazol-5-yl)ethynyl)-5-(methylamino)-1H-pyrazole-4-carboxamide]
15 | ≤ 100 | C=CC(=O)N1C[C@@H](n2nc(C#Cc3ccc4c(c3)ncn4C3CC3)c(C(N)=O)c2NC)C[C@@H]1CF [Example 178, 1-((3S,5R)-1-Acryloyl-5-(fluoromethyl)pyrrolidin-3-yl)-3-((1-cyclopropyl-1H-benzo[d]imidazol-5-yl)ethynyl)-5-(methylamino)-1H-pyrazole-4-carboxamide]
16 | ≤ 100 | C=CC(=O)N1C[C@@H](n2nc(C#Cc3c(F)cc4c(ncn4C4CC4)c3F)c(C(N)=O)c2NC)C[C@@H]1CF [Example 179, 1-((3S,5R)-1-Acryloyl-5-(fluoromethyl)pyrrolidin-3-yl)-3-((1-cyclopropyl-4,6-difluoro-1H-benzo[d]imidazol-5-yl)ethynyl)-5-(methylamino)-1H-pyrazole-4-carboxamide]
17 | ≤ 100 | C=CC(=O)N1C[C@@H](n2nc(C#Cc3cc4ncn(C5CC5)c4cc3F)c(C(N)=O)c2NC)C[C@H]1CF [Example 180, 3-[2-(1-Cyclopropyl-6-fluoro-1,3-benzodiazol-5-yl)ethynyl]-1-[(3S,5S)-5-(fluoromethyl)-1-(prop-2-enoyl)pyrrolidin-3-yl]-5-(methylamino)pyrazole-4-carboxamide]
18 | ≤ 100 | C=CC(=O)N1C[C@@H](n2nc(C#Cc3c(F)cc4c(ncn4C4CC4)c3F)c(C(N)=O)c2NC)C[C@H]1CF [Example 181, 3-[2-(1-Cyclopropyl-4,6-difluoro-1,3-benzodiazol-5-yl)ethynyl]-1-[(3S,5S)-5-(fluoromethyl)-1-(prop-2-enoyl)pyrrolidin-3-yl]-5-(methylamino)pyrazole-4-carboxamide]
19 | ≤ 100 | C#CC(=O)N1C[C@@H](n2nc(C#Cc3cc4ncn(C5CC5)c4cc3F)c(C(N)=O)c2NC)C[C@@H]1COC [Example 182, 3-((1-Cyclopropyl-6-fluoro-1H-benzo[d]imidazol-5-yl)ethynyl)-1-((3S,5R)-5-(methoxymethyl)-1-propioloylpyrrolidin-3-yl)-5-(methylamino)-1H-pyrazole-4-carboxamide]
20 | ≤ 100 | CC#CC(=O)N1C[C@@H](n2nc(C#Cc3cc4ncn(C5CC5)c4cc3F)c(C(N)=O)c2NC)C[C@@H]1COC [Example 183, 1-((3S,5R)-1-(But-2-ynoyl)-5-(methoxymethyl)pyrrolidin-3-yl)-3-((1-cyclopropyl-6-fluoro-1H-benzo[d]imidazol-5-yl)ethynyl)-5-(methylamino)-1H-pyrazole-4-carboxamide]
21 | ≤ 100 | C#CC(=O)N1C[C@@H](n2nc(C#Cc3c(F)cc4c(ncn4C4CC4)c3F)c(C(N)=O)c2NC)C[C@@H]1COC [Example 184, 3-[2-(1-cyclopropyl-4,6-difluoro-1,3-benzodiazol-5-yl)ethynyl]-1-[(3S,5R)-5-(methoxymethyl)-1-(prop-2-ynoyl)pyrrolidin-3-yl]-5-(methylamino)pyrazole-4-carboxamide]

Row | Compound | IC50 [nM]
22 | C=CC(=O)N1C[C@@H](n2nc(C#Cc3cc4ncn(C5CC5)c4c(F)c3F)c(C(N)=O)c2NC)C[C@@H]1C [Example 158, 3-[2-(1-cyclopropyl-6,7-difluoro-1,3-benzodiazol-5-yl)ethynyl]-1-[(3S,5S)-5-methyl-1-(prop-2-enoyl)pyrrolidin-3-yl]-5-(methylamino)pyrazole-4-carboxamide] | ≤ 100
23 | C=CC(=O)N1C[C@@H](n2nc(C#Cc3c(F)cc4c(ncn4C4CC4)c3F)c(C(N)=O)c2NC)C[C@@H]1C(F)F [Example 163, 3-[2-(1-Cyclopropyl-4,6-difluoro-1,3-benzodiazol-5-yl)ethynyl]-1-[(3S,5R)-5-(difluoromethyl)-1-(prop-2-enoyl)pyrrolidin-3-yl]-5-(methylamino)pyrazole-4-carboxamide] | ≤ 100
24 | C=CC(=O)N1C[C@@H](n2nc(C#Cc3cc4ncn(C5CC5)c4cc3F)c(C(N)=O)c2NC)C[C@H]1C [Example 164, 1-((3S,5R)-1-Acryloyl-5-methylpyrrolidin-3-yl)-3-((1-cyclopropyl-6-fluoro-1H-benzo[d]imidazol-5-yl)ethynyl)-5-(methylamino)-1H-pyrazole-4-carboxamide] | ≤ 100
25 | C=CC(=O)N1C[C@@H](n2nc(C#Cc3c(F)cc4c(ncn4C4CC4)c3F)c(C(N)=O)c2NC)C[C@H]1C [Example 165, 3-[2-(1-Cyclopropyl-4,6-difluoro-1,3-benzodiazol-5-yl)ethynyl]-1-[(3S,5R)-5-methyl-1-(prop-2-enoyl)pyrrolidin-3-yl]-5-(methylamino)pyrazole-4-carboxamide] | ≤ 100
26 | C=CC(=O)N1C[C@@H](n2nc(C#Cc3cc4ncn(C5CC5)c4cc3F)c(C(N)=O)c2NC)C[C@@H]1C [Example 169, 1-((3S,5S)-1-Acryloyl-5-methylpynolidin-3-yl)-3-((1-cyclopropyl-6-fluoro-1H-benzo[d]imidazol-5-yl)ethynyl)-5-(methylamino)-1H-pyrazole-4-carboxamide] | ≤ 100
